From patent publication US12187723B2 (BRISTOL-MYERS SQUIBB COMPANY, priority 2019, dated 2025)
Blank lines part the entries; values can stand above or below the compound they belong to.

Columns and labels:
human TLR7 = target: T1, human TLR7 (Homo sapiens, UniProt Q9NYK1); assay: TLR7 inhibition reporter assay (HEK-Blue SEAP); assay type: cell-based; conditions: HEK-Blue cells overexpressing human TLR7, gardiquimod 7.5 μM, 22 hour incubation
T1 construct: host or cells: HEK-Blue cells
T1 sequence (Q9NYK1 27-1049): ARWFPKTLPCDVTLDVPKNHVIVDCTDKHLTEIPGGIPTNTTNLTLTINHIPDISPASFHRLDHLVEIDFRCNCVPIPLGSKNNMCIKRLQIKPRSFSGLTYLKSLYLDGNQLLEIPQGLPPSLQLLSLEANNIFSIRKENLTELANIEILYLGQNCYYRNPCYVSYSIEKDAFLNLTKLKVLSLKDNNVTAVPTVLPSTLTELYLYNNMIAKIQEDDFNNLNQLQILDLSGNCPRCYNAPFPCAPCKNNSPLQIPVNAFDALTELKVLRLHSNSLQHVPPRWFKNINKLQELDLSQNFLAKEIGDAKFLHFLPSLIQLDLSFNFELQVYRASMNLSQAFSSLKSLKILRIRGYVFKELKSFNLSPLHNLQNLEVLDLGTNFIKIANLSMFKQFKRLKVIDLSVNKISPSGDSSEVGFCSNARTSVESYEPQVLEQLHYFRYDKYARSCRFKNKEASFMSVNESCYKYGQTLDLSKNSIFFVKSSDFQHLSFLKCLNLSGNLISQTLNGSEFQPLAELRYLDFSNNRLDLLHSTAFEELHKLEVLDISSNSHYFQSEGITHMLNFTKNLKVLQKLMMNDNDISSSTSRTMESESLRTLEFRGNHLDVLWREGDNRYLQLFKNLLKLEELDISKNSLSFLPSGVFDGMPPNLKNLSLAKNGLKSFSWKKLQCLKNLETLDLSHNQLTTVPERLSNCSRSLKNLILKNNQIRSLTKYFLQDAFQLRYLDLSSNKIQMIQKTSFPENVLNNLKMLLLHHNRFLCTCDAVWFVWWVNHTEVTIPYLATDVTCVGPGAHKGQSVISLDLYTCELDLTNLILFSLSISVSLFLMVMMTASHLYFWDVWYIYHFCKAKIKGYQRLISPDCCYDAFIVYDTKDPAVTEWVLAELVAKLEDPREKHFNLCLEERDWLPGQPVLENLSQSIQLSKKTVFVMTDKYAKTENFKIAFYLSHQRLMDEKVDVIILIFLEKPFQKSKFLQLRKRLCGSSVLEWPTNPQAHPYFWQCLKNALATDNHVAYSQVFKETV
How it was run: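 Dose-response testing from 0.05 nM to 50 μM final was done on reporter cells for 22 hours at 37° C. Secreted SEAP was then detected, and inhibition was calculated as percent reduction of the agonist-plus-DMSO signal compared with wells given a known inhibitor.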

human TLR9 = target: T2, human TLR9 (Homo sapiens, UniProt Q9NR96); assay: TLR9 inhibition reporter assay (HEK-Blue SEAP); assay type: cell-based; conditions: HEK-Blue cells overexpressing human TLR9, ODN2006 5 nM, 22 hour incubation
T2 construct: host or cells: HEK-Blue cells
T2 sequence (Q9NR96 26-1032): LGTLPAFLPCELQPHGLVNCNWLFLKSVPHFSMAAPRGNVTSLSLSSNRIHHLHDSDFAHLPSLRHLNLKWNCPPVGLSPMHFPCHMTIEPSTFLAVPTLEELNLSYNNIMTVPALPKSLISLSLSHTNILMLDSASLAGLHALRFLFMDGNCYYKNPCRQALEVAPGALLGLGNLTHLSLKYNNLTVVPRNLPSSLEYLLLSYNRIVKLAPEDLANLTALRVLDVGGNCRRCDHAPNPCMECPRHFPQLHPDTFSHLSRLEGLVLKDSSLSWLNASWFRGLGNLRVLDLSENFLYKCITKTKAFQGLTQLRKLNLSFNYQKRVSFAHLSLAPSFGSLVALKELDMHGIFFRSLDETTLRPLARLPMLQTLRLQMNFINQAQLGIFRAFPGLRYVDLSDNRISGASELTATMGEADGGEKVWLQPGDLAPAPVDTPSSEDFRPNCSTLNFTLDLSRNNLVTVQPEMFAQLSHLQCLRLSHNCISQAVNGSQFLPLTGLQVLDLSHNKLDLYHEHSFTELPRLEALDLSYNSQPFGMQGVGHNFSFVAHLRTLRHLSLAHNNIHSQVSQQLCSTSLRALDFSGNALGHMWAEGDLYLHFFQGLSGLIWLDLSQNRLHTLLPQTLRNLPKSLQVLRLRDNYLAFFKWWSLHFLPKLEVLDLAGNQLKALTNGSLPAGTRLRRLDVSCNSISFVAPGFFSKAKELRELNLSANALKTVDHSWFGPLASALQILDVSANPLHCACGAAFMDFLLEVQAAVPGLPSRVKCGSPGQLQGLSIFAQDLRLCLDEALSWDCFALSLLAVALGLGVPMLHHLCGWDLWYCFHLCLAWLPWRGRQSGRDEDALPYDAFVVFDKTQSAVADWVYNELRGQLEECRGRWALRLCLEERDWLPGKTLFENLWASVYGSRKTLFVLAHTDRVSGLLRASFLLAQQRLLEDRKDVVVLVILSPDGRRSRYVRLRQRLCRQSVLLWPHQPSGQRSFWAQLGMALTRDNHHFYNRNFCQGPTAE
How it was run: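 Screening used HEK-Blue cells overexpressing one human TLR (7, 8 or 9) and an IFN-β minimal promoter–NF-κB/AP-1 SEAP construct. Stimulation lasted 22 h at 37 °C with receptor-specific agonist: gardiquimod, R848 or ODN2006 at 7.5 μM, 15.9 μM and 5 nM.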

Compound: Cc1c(-c2cc3[nH]c(=O)n(C4CCC(N5CCC6(CC5)COC6)CC4)c3cc2C(C)C)cn2ncnc2c1C (single isomer, unassigned) [Example 283, 1-(4-(2-oxa-7-azaspiro[3.5]nonan-7-yl)cyclohexyl)-5-(7,8-dimethyl-[1,2,4]triazolo[1,5-a]pyridin-6-yl)-6-isopropyl-1,3-dihydro-2H-benzo[d]imidazol-2-one]
- IC50 (human TLR7): 1.82 nM
- IC50 (human TLR9): 5340 nM

Compound: Cc1c(-c2cc3[nH]c(=O)n(C4CCC(N5CCCOCC5)CC4)c3cc2C(C)C)cn2ncnc2c1C (stereo not shown) [Example 271, 1-(4-(1,4-oxazepan-4-yl)cyclohexyl)-5-(7,8-dimethyl-[1,2,4]triazolo[1,5-a]pyridin-6-yl)-6-isopropyl-1,3-dihydro-2H-benzo[d]imidazol-2-one]
- IC50 (human TLR7): 6.06 nM
- IC50 (human TLR9): 8160 nM

Compound: CCN(CC)[C@H]1CC[C@@H](n2c(=O)[nH]c3cc(-c4cc(C)c5ncnn5c4)c(C)cc32)CC1 [Example 20, 1-((1s,4s)-4-(diethylamino)cyclohexyl)-6-methyl-5-(8-methyl-[1,2,4]triazolo[1,5-a]pyridin-6-yl)-1,3-dihydro-2H-benzo[d]imidazol-2-one]
- IC50 (human TLR7): 8.86 nM
- IC50 (human TLR9): 3350 nM

Compound: COc1c(C)c(-c2cc3[nH]c(=O)n(C4CCC(N5CCC6(CC5)COC6)CC4)c3cc2C(C)C)cn2ncnc12 (single isomer, unassigned) [Example 268, 1-(4-(2-oxa-7-azaspiro[3.5]nonan-7-yl)cyclohexyl)-6-isopropyl-5-(8-methoxy-7-methyl-[1,2,4]triazolo[1,5-a]pyridin-6-yl)-1,3-dihydro-2H-benzo[d]imidazol-2-one]
- IC50 (human TLR7): 15.8 nM
- IC50 (human TLR9): 17400 nM

Compound: COC1CN(C2CCC(n3c(=O)[nH]c4cc(-c5cn6ncnc6c(C)c5C)c(C(C)C)cc43)CC2)C1 (single isomer, unassigned) [Example 278, 5-(7,8-dimethyl-[1,2,4]triazolo[1,5-a]pyridin-6-yl)-6-isopropyl-1-(4-(3-methoxyazetidin-1-yl)cyclohexyl)-1,3-dihydro-2H-benzo[d]imidazol-2-one]
- IC50 (human TLR7): 7.88 nM
- IC50 (human TLR9): 15200 nM

Compound: COc1c(C)c(-c2cc3[nH]c(=O)n(C4CCC(N5CC6(COC6)C5)CC4)c3cc2C(C)C)cn2ncnc12 (single isomer, unassigned) [Example 269, 1-(4-(2-oxa-6-azaspiro[3.3]heptan-6-yl)cyclohexyl)-6-isopropyl-5-(8-methoxy-7-methyl-[1,2,4]triazolo[1,5-a]pyridin-6-yl)-1,3-dihydro-2H-benzo[d]imidazol-2-one]
- IC50 (human TLR7): 5.73 nM
- IC50 (human TLR9): 25600 nM

Compound: Cc1c(-c2cc3[nH]c(=O)n(C4CCC(N5CC6(COC6)C5)CC4)c3cc2C(C)C)cn2ncnc2c1C (single isomer, unassigned) [Example 281, 1-(4-(2-oxa-6-azaspiro[3.3]heptan-6-yl)cyclohexyl)-5-(7,8-dimethyl-[1,2,4]triazolo[1,5-a]pyridin-6-yl)-6-isopropyl-1,3-dihydro-2H-benzo[d]imidazol-2-one]
- IC50 (human TLR7): 12.4 nM
- IC50 (human TLR9): 13100 nM

Compound: Cc1c(-c2cc3[nH]c(=O)n(C4CCC(N5CCC(F)(F)CC5)CC4)c3cc2C(C)C)cn2ncnc2c1C (single isomer, unassigned) [Example 276, 1-(4-(4,4-difluoropiperidin-1-yl)cyclohexyl)-5-(7,8-dimethyl-[1,2,4]triazolo[1,5-a]pyridin-6-yl)-6-isopropyl-1,3-dihydro-2H-benzo[d]imidazol-2-one]
- IC50 (human TLR7): 61.7 nM
- IC50 (human TLR9): 15300 nM

Next, values leading:

- IC50 (human TLR7): 5.96 nM
- IC50 (human TLR9): 17300 nM
Compound: COc1cc(-c2cc3[nH]c(=O)n(C4CCC(N5CC6(C5)CS(=O)(=O)C6)CC4)c3cc2C(C)C)cn2ncnc12 (single isomer, unassigned) [Example 245, 1-(4-(2,2-dioxido-2-thia-6-azaspiro[3.3]heptan-6-yl)cyclohexyl)-6-isopropyl-5-(8-methoxy-[1,2,4]triazolo[1,5-a]pyridin-6-yl)-1,3-dihydro-2H-benzo[d]imidazol-2-one]

- IC50 (human TLR7): 53.2 nM
- IC50 (human TLR9): 3650 nM
Compound: COc1cc(-c2cc3[nH]c(=O)n([C@H]4CC[C@@H](N)CC4)c3cc2C)cn2ncnc12 [1 EG, 1-((1s,4s)-4-aminocyclohexyl)-5-(8-methoxy-[1,2,4]triazolo[1,5-a]pyridin-6-yl)-6-methyl-1,3-dihydro-2H-benzo[d]imidazol-2-one]

- IC50 (human TLR7): 28.2 nM
- IC50 (human TLR9): 2710 nM
Compound: COc1cc(-c2cc3[nH]c(=O)n([C@@H]4CCCNC4)c3cc2C(F)(F)F)cn2ncnc12 [110 F, (R)-5-(8-methoxy-[1,2,4]triazolo[1,5-a]pyridin-6-yl)-1-(piperidin-3-yl)-6-(trifluoromethyl)-1,3-dihydro-2H-benzo[d]imidazol-2-one]

- IC50 (human TLR7): 344 nM
- IC50 (human TLR9): 5450 nM
Compound: Cc1cc2c(cc1-c1cc(C)c3ncnn3c1)[nH]c(=O)n2C1CCNCC1 [1 EA, 6-methyl-5-(8-methyl-[1,2,4]triazolo[1,5-a]pyridin-6-yl)-1-(piperidin-4-yl)-1,3-dihydro-2H-benzo[d]imidazol-2-one]

- IC50 (human TLR7): 10.9 nM
- IC50 (human TLR9): 23400 nM
Compound: COc1cc(-c2cc3[nH]c(=O)n(C4CCC(N5C[C@@H](F)[C@@H](F)C5)CC4)c3cc2C(C)C)cn2ncnc12 (single isomer, unassigned) [Example 293]

- IC50 (human TLR7): 0.66 nM
- IC50 (human TLR9): 8310 nM
Compound: COc1cc(-c2cc3[nH]c(=O)n(C4CCC(N5CCC(OC)C5)CC4)c3cc2C(C)C)cn2ncnc12 (stereo not shown) [Example 285, 6-isopropyl-5-(8-methoxy-[1,2,4]triazolo[1,5-a]pyridin-6-yl)-1-(4-(3-methoxypyrrolidin-1-yl)cyclohexyl)-1,3-dihydro-2H-benzo[d]imidazol-2-one]

- IC50 (human TLR7): 211 nM
- IC50 (human TLR9): > 50000 nM
Compound: Cc1cc2c(cc1-c1cc(C)c3ncnn3c1)[nH]c(=O)n2[C@@H]1CCCN(CCC(F)(F)F)C1 [Example 29, (R)-6-methyl-5-(8-methyl-[1,2,4]triazolo[1,5-a]pyridin-6-yl)-1-(1-(3,3,3-trifluoropropyl)piperidin-3-yl)-1,3-dihydro-2H-benzo[d]imidazol-2-one]

- IC50 (human TLR7): 1160 nM
- IC50 (human TLR9): 347 nM
Compound: Cc1cc(-c2ccc3c(c2)[nH]c(=O)n3C2CCNCC2)cn2ncnc12 [1 EB, 5-(8-methyl-[1,2,4]triazolo[1,5-a]pyridin-6-yl)-1-(piperidin-4-yl)-1,3-dihydro-2H-benzo[d]imidazol-2-one]

- IC50 (human TLR7): 18.1 nM
- IC50 (human TLR9): 524 nM
Compound: Cc1cc2c(cc1-c1cc(C)c3ncnn3c1)[nH]c(=O)n2[C@@H]1CCCNC1 [1 ED, (R)-6-methyl-5-(8-methyl-[1,2,4]triazolo[1,5-a]pyridin-6-yl)-1-(piperidin-3-yl)-1,3-dihydro-2H-benzo[d]imidazol-2-one]
